Values joined by “and” are separate entries in the source; they are usually repeats but may differ in a detail not shown here. Equal entries are not always repeated. Toxic doses and inconclusive results are not listed.
System: BDF1 mice, P388 leukemia ip, median survival T/C
Assay: NCI In Vivo Anticancer Drug Screen. Data for tumor model P388 Leukemia (intraperitoneal) in B6D2F1 (BDF1) mice
Details: endpoint: median survival time, higher = longer survival
Summary of the method: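 Reported as T/C, where T is the survival measurement in dosed animals and C the same measurement in vehicle controls.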

[1] = dose: 50.0 mg/kg/injection, schedule: Q01DX009 (ip), vehicle: saline with Tween-80
[2] = dose: 100.0 mg/kg/injection, schedule: Q01DX009 (ip), vehicle: saline with Tween-80
[3] = dose: 200.0 mg/kg/injection, schedule: Q01DX009 (ip), vehicle: saline with Tween-80
[4] = dose: 100.0 mg/kg/injection, schedule: Q04DX003 (ip), vehicle: saline with Tween-80
[5] = dose: 200.0 mg/kg/injection, schedule: Q04DX003 (ip), vehicle: saline with Tween-80
[6] = dose: 400.0 mg/kg/injection, schedule: Q04DX003 (ip), vehicle: saline with Tween-80
[7] = dose: 12.5 mg/kg/injection, schedule: Q01DX009 (ip), vehicle: saline with Tween-80
[8] = dose: 25.0 mg/kg/injection, schedule: Q01DX009 (ip), vehicle: saline with Tween-80
[9] = dose: 50.0 mg/kg/injection, schedule: Q04DX003 (ip), vehicle: saline
[10] = dose: 100.0 mg/kg/injection, schedule: Q04DX003 (ip), vehicle: saline
[11] = dose: 6.25 mg/kg/injection, schedule: Q01DX009 (ip), vehicle: saline with Tween-80
[12] = dose: 50.0 mg/kg/injection, schedule: Q04DX003 (ip), vehicle: saline with Tween-80

CCN1CC1 (tested in a mixture with another compound)
T/C (dose: 0.14 mg/kg/injection, schedule: Q01DX009 (ip), vehicle: saline): 95 % of control
T/C (dose: 0.29 mg/kg/injection, schedule: Q01DX009 (ip), vehicle: saline): 86 % of control
T/C (dose: 0.58 mg/kg/injection, schedule: Q01DX009 (ip), vehicle: saline): 90 % of control
T/C (dose: 1.17 mg/kg/injection, schedule: Q01DX009 (ip), vehicle: saline): 120 % of control
T/C (dose: 2.34 mg/kg/injection, schedule: Q01DX009 (ip), vehicle: saline): 120 % of control

Cc1ccc2c(c1)CCCN2C=O
T/C [1]: 104 % of control
T/C [2]: 109 % of control
T/C [3]: 123 % of control

O=C(Nc1ccccc1C(F)(F)F)Oc1ccc(Cl)cc1Cl
T/C [4]: 122 % of control
T/C [5]: 109 % of control
T/C [6]: 118 % of control

Clc1ccc2c(c1)nnn2OC1CCCCCC1
T/C [1]: 101 % of control
T/C [2]: 97 % of control
T/C [3]: 108 % of control

Cn1c(=O)c2[nH]cnc2n(C)c1=O
T/C (dose: 25.0 mg/kg/injection, schedule: Q01DX010 (ip), vehicle: saline): 95 % of control
T/C (dose: 50.0 mg/kg/injection, schedule: Q01DX010 (ip), vehicle: saline): 104 % of control
T/C (dose: 100.0 mg/kg/injection, schedule: Q01DX010 (ip), vehicle: saline): 100 % of control
T/C (dose: 200.0 mg/kg/injection, schedule: Q01DX010 (ip), vehicle: saline): 104 % of control

Nc1cccc(NC=O)c1
T/C [7]: 100 % of control
T/C [8]: 108 % of control
T/C [1]: 95 % of control

CC[n+]1ccc(Nc2ccc(NC(=O)c3ccc(C(=O)Nc4ccc(Nc5cc[n+](CC)c(N)n5)cc4)cc3)cc2)nc1N
T/C (dose: 0.12 mg/kg/injection, schedule: Q01DX009 (ip), vehicle: saline): 150 % of control
T/C (dose: 0.25 mg/kg/injection, schedule: Q01DX009 (ip), vehicle: saline): 150 % of control
T/C (dose: 0.25 mg/kg/injection, schedule: Q04DX003 (ip), vehicle: Klucel (hydroxypropylcellulose) (HPC)): 100 % of control
T/C (dose: 0.5 mg/kg/injection, schedule: Q01DX009 (ip), vehicle: saline): 155 % of control
T/C (dose: 0.5 mg/kg/injection, schedule: Q04DX003 (ip), vehicle: Klucel (hydroxypropylcellulose) (HPC)): 95 % of control
T/C (dose: 1.0 mg/kg/injection, schedule: Q04DX003 (ip), vehicle: Klucel (hydroxypropylcellulose) (HPC)): 109 % of control
T/C (dose: 1.65 mg/kg/injection, schedule: Q01DX009 (ip), vehicle: saline): 160 % of control
T/C (dose: 2.5 mg/kg/injection, schedule: Q01DX009 (ip), vehicle: saline): 175 % of control and 177 % of control
T/C (dose: 3.75 mg/kg/injection, schedule: Q01DX009 (ip), vehicle: saline): 170 % of control
T/C (dose: 5.0 mg/kg/injection, schedule: Q04DX003 (ip), vehicle: saline): 177 % of control
T/C (dose: 10.0 mg/kg/injection, schedule: Q01DX009 (ip), vehicle: saline): 190 % of control
T/C (dose: 20.0 mg/kg/injection, schedule: Q01DX009 (ip), vehicle: saline): 300 % of control
T/C (dose: 30.0 mg/kg/injection, schedule: Q04DX003 (ip), vehicle: saline): 195 % of control
T/C (dose: 45.0 mg/kg/injection, schedule: Q04DX003 (ip), vehicle: saline): 200 % of control
T/C [9]: 200 % of control
T/C (dose: 65.0 mg/kg/injection, schedule: Q04DX003 (ip), vehicle: saline): 216 % of control
T/C (dose: 80.0 mg/kg/injection, schedule: Q01DX009 (ip), vehicle: saline): 109 % of control
T/C [10]: 250 % of control and 263 % of control
T/C (dose: 150.0 mg/kg/injection, schedule: Q04DX003 (ip), vehicle: saline): 104 % of control
T/C (dose: 2.5 micrograms/kg/injection, schedule: Q01DX009 (ip), vehicle: saline): 90 % of control
T/C (dose: 5.0 micrograms/kg/injection, schedule: Q01DX009 (ip), vehicle: saline): 95 % of control
T/C (dose: 10.0 micrograms/kg/injection, schedule: Q01DX009 (ip), vehicle: saline): 100 % of control

COC1CC=CC2=C1CCC1C2CC2C(=O)C1(C)CCC2O (configuration not stated)
T/C (dose: 100.0 mg/kg/injection, schedule: Q01DX001 (ip), vehicle: other): 105 % of control
T/C (dose: 200.0 mg/kg/injection, schedule: Q01DX001 (ip), vehicle: other): 100 % of control
T/C (dose: 400.0 mg/kg/injection, schedule: Q01DX001 (ip), vehicle: other): 100 % of control

O=CNc1ccc(/C=C\c2ccnc3ccccc23)cc1
T/C (dose: 3.13 mg/kg/injection, schedule: Q01DX009 (ip), vehicle: saline with Tween-80): 111 % of control
T/C [11]: 106 % of control
T/C [7]: 103 % of control
T/C [1]: 94 % of control
T/C [2]: 86 % of control
T/C [3]: 91 % of control

O=[N+]([O-])c1ccc(N/N=C(\c2ccccc2)c2ccsc2)c([N+](=O)[O-])c1
T/C [11]: 103 % of control
T/C [7]: 100 % of control
T/C [8]: 96 % of control
T/C [1]: 92 % of control

COc1cc2c(cc1OC)C1c3cc(OC)c(OC)cc3CC(=O)N1CC2 (configuration not stated)
T/C (dose: 0.09 mg/kg/injection, schedule: Q01DX009 (ip), vehicle: saline): 110 % of control
T/C (dose: 0.39 mg/kg/injection, schedule: Q01DX009 (ip), vehicle: saline): 88 % of control
T/C (dose: 0.78 mg/kg/injection, schedule: Q01DX009 (ip), vehicle: saline): 98 % of control
T/C (dose: 1.56 mg/kg/injection, schedule: Q01DX009 (ip), vehicle: saline): 99 % of control
T/C (dose: 3.12 mg/kg/injection, schedule: Q01DX009 (ip), vehicle: saline): 100 % of control
T/C (dose: 12.5 mg/kg/injection, schedule: Q01DX009 (ip), vehicle: saline): 108 % of control
T/C [9]: 102 % of control
T/C (dose: 100.0 mg/kg/injection, schedule: Q01DX009 (ip), vehicle: saline): 92 % of control
T/C [10]: 99 % of control
T/C (dose: 200.0 mg/kg/injection, schedule: Q04DX003 (ip), vehicle: saline): 102 % of control
T/C (dose: 400.0 mg/kg/injection, schedule: Q04DX003 (ip), vehicle: saline): 93 % of control

Brc1ccc(Oc2ccccc2)cc1
T/C [4]: 122 % of control
T/C (dose: 266.0 mg/kg/injection, schedule: Q04DX003 (ip), vehicle: saline with Tween-80): 100 % of control
T/C [6]: 103 % of control
T/C (dose: 600.0 mg/kg/injection, schedule: Q04DX003 (ip), vehicle: saline with Tween-80): 96 % of control

COc1cc2c(c(OC)c1OC)-c1ccc(OC)c(=O)cc1[C@@H](N)CC2
T/C (dose: 1.25 mg/kg/injection, schedule: Q01DX009 (ip), vehicle: water): 120 % of control
T/C (dose: 2.0 mg/kg/injection, schedule: Q01DX010 (ip), vehicle: water): 160 % of control
T/C (dose: 5.0 mg/kg/injection, schedule: Q01DX009 (ip), vehicle: water): 94 % of control
T/C (dose: 20.0 mg/kg/injection, schedule: Q04DX003 (ip), vehicle: Klucel (hydroxypropylcellulose) (HPC)): 176 % of control
T/C (dose: 30.0 mg/kg/injection, schedule: Q04DX003 (ip), vehicle: Klucel (hydroxypropylcellulose) (HPC)): 98 % of control
T/C (dose: 45.0 mg/kg/injection, schedule: Q04DX003 (ip), vehicle: Klucel (hydroxypropylcellulose) (HPC)): 89 % of control

OCCOc1c(Cl)c(Cl)c(Cl)c(Cl)c1Cl
T/C [8]: 100 % of control
T/C [1]: 104 % of control
T/C [12]: 100 % of control
T/C [2]: 118 % of control
T/C [4]: 100 % of control

Clc1nc2nc[nH]c2nc1Cl
T/C (dose: 12.5 mg/kg/injection, schedule: Q04DX003 (ip), vehicle: saline with Tween-80): 100 % of control
T/C [8]: 170 % of control
T/C (dose: 25.0 mg/kg/injection, schedule: Q04DX003 (ip), vehicle: saline with Tween-80): 100 % of control
T/C [1]: 95 % of control
T/C [12]: 90 % of control
T/C [4]: 95 % of control

CCOC(=O)c1c[nH]c2c(OC)cccc2c1=O
T/C [8]: 93 % of control
T/C [1]: 109 % of control
T/C [2]: 109 % of control
T/C [4]: 99 % of control
T/C [3]: 109 % of control
T/C [5]: 98 % of control
T/C (dose: 300.0 mg/kg/injection, schedule: Q01DX009 (ip), vehicle: saline with Tween-80): 90 % of control

CO[C@H]1CC=C2CCN3CCCc4cc5c(cc4[C@]23C1)OCO5
T/C (dose: 10.0 mg/kg/injection, schedule: Q01DX009 (ip), vehicle: alcohol): 100 % of control
T/C (dose: 20.0 mg/kg/injection, schedule: Q01DX009 (ip), vehicle: alcohol): 100 % of control

Source: PubChem BioAssay AID328 (DTP/NCI, 2004)
